Test in all cases: cells
Set-up in all cases: species or system AML cell lines (8); Secondary HTS, 10-point dose-response in triplicate, Cell Titer Glo viability, four-parameter fit EC50
On the technique in general: In ATP-based viability assays light output follows the ATP content of the culture.

One test has as its system CMK. Particulars: Homo sapiens, CMK, 72 h, read-out: CMK.
The subject of a further test is MV4-11. Particulars: Homo sapiens, MV4-11, 72 h, read-out: MV4-11.
A further test relates to MOLM-13. The conditions noted are these: Homo sapiens, MOLM-13, 72 h, read-out: MOLM-13.
In a further test the test system is M07e. Particulars: M-07e, 72 h, read-out: M07e.
The test system of the next test is ML-2. The conditions noted are these: Homo sapiens, ML-2, 72 h, read-out: ML-2.
In a further test the test system is CHRF288-11. Particulars: 72 h, read-out: CHRF288-11.
In a further test the test system is CMS. The conditions noted are these: 72 h, read-out: CMS.
In the next test the test system is U937. Particulars: Homo sapiens, U-937, 72 h, read-out: U937.

Structures are written as SMILES.

In the case of `CN(C)CC(=O)Nc1ccc2[nH]c(=O)c3ccccc3c2c1` [SJ000784265, PJ34], the EC50 with CMK, in the test on MV4-11, in the test with MOLM-13, in the test on M07e, with ML-2 and in the test on CHRF288-11 was greater than 10 µM throughout. In addition, the EC50 in the test with CMS and in the test on U937 was greater than 10 µM each time.

As for `Cc1cc(I)ccc1Nc1c(C(=O)NOCC2CC2)cc(F)c(F)c1F` [SJ000821584, PD 198306], the EC50 in the test on CMK, in the test with MV4-11, in the test with MOLM-13, with M07e, in the test on ML-2 and in the test on CHRF288-11 was greater than 10 µM each time. The EC50 in the test with CMS and in the test on U937 was greater than 10 µM in each case.

On to `Cc1noc(-c2ccc(-c3ccc(CC(=O)O)cc3)cc2)c1NC(=O)O[C@H](C)c1ccccc1Cl` [SJ000833864, AM-966], for which the EC50 with CMK was greater than 10 µM; with MV4-11, greater than 10 µM; in the test with MOLM-13 it was 0.018 µM; with M07e, greater than 10 µM; in the test with ML-2 it was greater than 10 µM; with CHRF288-11, greater than 10 µM. Moreover, the EC50 in the test with CMS and in the test on U937 was greater than 10 µM each time.

Regarding `CC(C)(C)c1nc(-c2cccc(NS(=O)(=O)c3c(F)cccc3F)c2F)c(-c2ccnc(N)n2)s1` [DABRAFENIB], the EC50 in the test with CMK, with MV4-11, with MOLM-13, in the test with M07e, in the test on ML-2 and in the test with CHRF288-11 was greater than 10 µM throughout. Also, the EC50 in the test on CMS and in the test with U937 was greater than 10 µM in each case.

In the case of `C=C1C(=O)O[C@@H](CCC)[C@@H]1C(=O)O` (racemic) [SJ000784258, BUTYROLACTONE 3], the EC50 is greater than 10 µM in the test on CMK; greater than 10 µM in the test with MV4-11; 1.8 µM in the test on MOLM-13; greater than 10 µM in the test with M07e; greater than 10 µM in the test on ML-2; greater than 10 µM with CHRF288-11. In addition, the EC50 with CMS and with U937 was greater than 10 µM throughout.

With `CNC(=O)c1c(F)cccc1Nc1nc(Nc2cc3c(ccn3C(=O)CN(C)C)cc2OC)nc2[nH]ccc12` [SJ000821585, GSK1838705A], the EC50 with CMK was 5.8 µM; in the test with MV4-11, greater than 10 µM; in the test with MOLM-13, greater than 10 µM; in the test on M07e, greater than 10 µM; in the test with ML-2, greater than 10 µM; in the test on CHRF288-11, greater than 10 µM. Moreover, the EC50 in the test with CMS was greater than 10 µM; in the test with U937, 6.2 µM.

Regarding `Nc1ncn([C@@H]2O[C@H](CO)[C@@H](O)[C@H]2O)c(=O)n1` [SJ000285227, 5-AZACYTIDINE], the EC50 with CMK is 8 µM; in the test on MV4-11, greater than 10 µM; with MOLM-13, 4.5 µM; in the test with M07e, greater than 10 µM; in the test on ML-2, greater than 10 µM; in the test with CHRF288-11, greater than 10 µM. Moreover, the EC50 in the test on CMS is 6.83 µM; in the test with U937, greater than 10 µM.

On to `CCOC(=O)C1=C(C)NC2=C(C(=O)CC(C)(C)C2)C1c1ccc(-c2ccccc2)cc1` (stereo not drawn) [SJ000834140, ITD-1], for which the EC50 in the test on CMK, in the test with MV4-11, in the test on MOLM-13, in the test on M07e, in the test with ML-2 and in the test with CHRF288-11 was greater than 10 µM in each case. The EC50 in the test on CMS and in the test with U937 was greater than 10 µM throughout.

Consider `NC(=O)C1CCCc2c1[nH]c1ccc(Cl)cc21` (stereo not drawn) [SJ000784267], for which the EC50 with CMK, in the test with MV4-11, with MOLM-13, with M07e, with ML-2 and in the test on CHRF288-11 was greater than 10 µM throughout. Besides, the EC50 in the test with CMS and in the test on U937 was greater than 10 µM each time.

Turning to `OC[C@H]1O[C@@H](n2cnc3c2NC=NC[C@H]3O)C[C@@H]1O` [PENTOSTATIN], the EC50 in the test on CMK, in the test on MV4-11, in the test with MOLM-13, in the test on M07e, in the test on ML-2 and with CHRF288-11 was greater than 10 µM each time. Further, the EC50 in the test with CMS and in the test on U937 was greater than 10 µM throughout.

Turning to `CCN1CCN(CC(=O)Nc2ccc(-c3cccc4c(=O)cc(N5CCOCC5)oc34)c3sc4ccccc4c23)CC1` [SJ000834141, KU-0060648], the EC50 with CMK was 0.27 µM; in the test with MV4-11, greater than 10 µM; in the test with MOLM-13, 0.47 µM; with M07e it was 4 µM; with ML-2 it was 0.43 µM; in the test on CHRF288-11, 0.78 µM. For the same compound, the EC50 in the test with CMS was 2.8 µM; in the test with U937, 3 µM.

Consider `Cc1cc2nc(NCCCO)n(CC(=O)c3cc(C(C)(C)C)c(O)c(C(C)(C)C)c3)c2cc1C` [SJ000786025, CID-2858522], for which the EC50 in the test with CMK, in the test with MV4-11, with MOLM-13, in the test with M07e, in the test on ML-2 and with CHRF288-11 was greater than 10 µM each time. Besides, the EC50 in the test with CMS and in the test on U937 was greater than 10 µM each time.

For the compound `COc1ccc2nc3n[nH]c(C)c3c(NCCOCCO)c2c1` [SJ000832935, SCH 51344], the EC50 with CMK, in the test with MV4-11, with MOLM-13, in the test with M07e, with ML-2 and in the test on CHRF288-11 was greater than 10 µM each time. Moreover, the EC50 in the test with CMS and in the test with U937 was greater than 10 µM in each case.

`N[C@@H]1CCCN(c2c(/C=C3\SC(=O)NC3=O)cccc2-c2ccccc2)C1` [SJ000833889, AZD1208]: the EC50 in the test with CMK, in the test with MV4-11, in the test with MOLM-13, with M07e, with ML-2 and with CHRF288-11 was greater than 10 µM in each case. Besides, the EC50 in the test on CMS and with U937 was greater than 10 µM in each case.

`Cc1cc(C(C)Nc2ccccc2)c2nc(N3CCOCC3)cc(=O)n2c1` (stereo not drawn) [SJ000803731, TGX-221]: the EC50 with CMK is greater than 10 µM; with MV4-11, greater than 10 µM; in the test with MOLM-13, 8 µM; in the test on M07e it was greater than 10 µM; in the test on ML-2 it was greater than 10 µM; in the test on CHRF288-11 it was greater than 10 µM. The EC50 with CMS and in the test on U937 was greater than 10 µM each time.

Regarding `COc1cc2c(cc1-c1c(C)noc1C)ncc1[nH]c(=O)n([C@H](C)c3ccccn3)c12` [SJ000785891, I-BET151], the EC50 was greater than 10 µM in the test with CMK; greater than 10 µM in the test on MV4-11; 0.65 µM in the test with MOLM-13; greater than 10 µM in the test on M07e; 2.7 µM with ML-2; 5.1 µM in the test with CHRF288-11. In addition, the EC50 is 2.1 µM in the test on CMS and 3.2 µM with U937.

In the case of `CC(C)n1c(/C=C/C(O)CC(O)CC(=O)O)c(-c2ccc(F)cc2)c2ccccc21` (stereo not drawn) [FLUVASTATIN], the EC50 with CMK, in the test with MV4-11, with MOLM-13, in the test with M07e, in the test on ML-2 and in the test with CHRF288-11 was greater than 10 µM in each case. Further, the EC50 with CMS and in the test on U937 was greater than 10 µM each time.

For `CC(C)c1cccc(C(C)C)c1N1C(=O)c2ccc(O)cc2C1=O` [SJ000834149, 5HPP-33], the EC50 was greater than 10 µM with CMK; greater than 10 µM with MV4-11; greater than 10 µM in the test on MOLM-13; greater than 10 µM in the test with M07e; 5.7 µM with ML-2; greater than 10 µM with CHRF288-11. The EC50 in the test with CMS was determined as 8.4 µM; with U937, 6.7 µM.

As to `CC(C)C(=O)SCCCCCCC(=O)Nc1nc(-c2ccccc2)cs1` [SJ000784276, NCH 51], the EC50 was greater than 10 µM in the test on CMK; greater than 10 µM with MV4-11; 3.1 µM in the test with MOLM-13; 3.6 µM in the test with M07e; 5.6 µM with ML-2; 3.6 µM with CHRF288-11. Moreover, the figures for the EC50 in the test with CMS and in the test with U937 were 4.5 µM and 6.7 µM, respectively.

For `Cc1ccc(NC(=O)CCCCCC(=O)Nc2ccccc2N)cc1` [SJ000784239, PIMELIC DIPHENYLAMIDE 106], the EC50 in the test on CMK is greater than 10 µM; in the test on MV4-11 it was greater than 10 µM; in the test on MOLM-13 it was greater than 10 µM; in the test on M07e, 6.7 µM; in the test with ML-2, greater than 10 µM; with CHRF288-11, greater than 10 µM. Also, the EC50 in the test with CMS is 8.2 µM; in the test with U937, greater than 10 µM.

Consider `Cc1[nH]c(/C=C2\C(=O)Nc3ccccc32)c(C)c1CCC(=O)O` [ORANTINIB], for which the EC50 in the test with CMK, in the test with MV4-11, in the test on MOLM-13, in the test with M07e, with ML-2 and with CHRF288-11 was greater than 10 µM throughout. For the same compound, the EC50 with CMS and in the test on U937 was greater than 10 µM each time.
